# Results: article PMC4467128 (Oncotarget, 2014)
# Key:
# [1] = test system: p-Akt (S473) in BJAB cells; assay: Cell-based ELISA for p-Akt (S473), BJAB; settings: Homo sapiens, 24 h, mean ± SEM, read-out: IC50 (Akt dephosphorylation, p-Akt S473)
# Description: After the treatment, cells were lysed with ice-cold lysis buffer mentioned above and equivalent aliquots of protein were subjected to a PathScan phospho-Akt1 (Ser473) sandwich ELISA kit (Cell Signaling Technology) following manufacture's instruction. In briefly, whole cell lysate was first half-diluted with sample diluent and added 100 μl into the well incubating overnight at 4°C. After the reaction, wells were washed 4 times with 200 μl wash buffer and then added 100 μl of Akt1 mouse detection antibody incubating 1 h at 37°C. Washed 4 times again and then added 100 μl of anti-mouse IgG HRP-linked antibody incubating 30 min at 37°C. After incubation, washed the well once again and then added 100 μl TMB substrate for color production and finally added 100 μl STOP solution. The results were measured by spectrophotometer at wavelength 450 nm.
# Ramos cells [2] = assay: Ramos engraftment survival model in NOD/SCID mice; format: in vivo; settings: daily oral gavage, MPT0E028 100 mg/kg, SAHA 200 mg/kg
# Text: (§1) The mice were carefully maintained and all animal procedures were in accordance with the Institutional Animal Care and Use Committee procedures and guidelines. All animal experiments followed ethical standards, and protocols has been reviewed and approved by Animal Use and Management Committee of National Taiwan University (IACUC Approval No: 20100225).
# In Ramos engrafment model, human B-cell lymphoma Ramos cells were resuspended at 10^7 cells/ml in culture medium at room temperature, and 2×10^6 cells were inoculated into male NOD/SCID mice via tail vein. Treatment began 1 week after engrafment. […] Survival rate was used as end point for this study.
# BJAB tumors = assay: BJAB xenograft tumor growth model in nude mice; format: in vivo; settings: po, qd, 31 days
# Description: as §1
# In BJAB xenograft model, the male nude mice were injected subcutaneously with the same volume of BD Matrigel Matrix HC (BD bioscience, catalog 354248) and BJAB cells (2×10^7 cell/mouse) into the flank of each animal. […] Tumor size was measured twice weekly and calculated from V = 0.5 lw^2, where w = width (w) and l = length (l). At the end of study, tumors were carefully removed and frozen in liquid nitrogen for subsequent western analysis.
# HUVEC cells = assay: MTT cell viability assay, normal HUVEC cells; format: cell-based; settings: Homo sapiens, 24 h, read-out: IC50 (cell viability, toxicity)
# Description: (§2) Two fast-growing malignant B cell lymphoma (Burkitt lymphoma) cell lines and human umbilical vein endothelial cells (HUVEC) were used. Ramos and HUVEC cells were purchased from American Type Culture Collection (Manassas, VA, USA) and BJAB cells were a kind gift from Professor Ping-Ning Hsu (National Taiwan University Hospital and National Taiwan University, College of Medicine, Taipei, Taiwan). […] All cells were maintained in humidified air containing 5% CO2 at 37°C. Cell density was maintained between 1×10^5 and 1×10^6 cell/ml and passaged every 2 to 3 days.
# (§3) Cell viability was assessed by MTT assay. […] After the treatment, 100 μl of 0.5 mg/ml 3-(4,5-Dimethylthiazol-2-yl)-2,5-diphenyl-tetrazolium bromide (MTT) were added to each well and incubated at 37°C to stained cells forming an insoluble blue formazan product. After 1 h incubation, 100 μl of extraction reagent (0.1M sodium acetate buffer or DMSO) were added to each well and mix thoroughly to lyse cells. The plates were then measured at 550 nm using an enzyme-linked immunosorbent assay (ELISA) reader (Packard, Meriden, CT, USA).
# Ramos cells [3] = assay: MTT cell viability assay, Ramos B-cell lymphoma cells; format: cell-based; settings: Homo sapiens, 24 h, mean ± SEM, read-out: IC50 (growth inhibition)
# Description: as §2, §3
# BJAB cells = assay: MTT cell viability assay, BJAB B-cell lymphoma cells; format: cell-based; settings: Homo sapiens, 24 h, mean ± SEM, read-out: IC50 (growth inhibition)
# Description: as §2, §3
# Akt = Akt (Homo sapiens, UniProt P31749); assay: Enzyme-based Akt kinase activity assay (Kinome Diversity Screen, ELISA quantitation); format: biochemical; settings: crosstide substrate
# Sequence of Akt (P31749 whole entry): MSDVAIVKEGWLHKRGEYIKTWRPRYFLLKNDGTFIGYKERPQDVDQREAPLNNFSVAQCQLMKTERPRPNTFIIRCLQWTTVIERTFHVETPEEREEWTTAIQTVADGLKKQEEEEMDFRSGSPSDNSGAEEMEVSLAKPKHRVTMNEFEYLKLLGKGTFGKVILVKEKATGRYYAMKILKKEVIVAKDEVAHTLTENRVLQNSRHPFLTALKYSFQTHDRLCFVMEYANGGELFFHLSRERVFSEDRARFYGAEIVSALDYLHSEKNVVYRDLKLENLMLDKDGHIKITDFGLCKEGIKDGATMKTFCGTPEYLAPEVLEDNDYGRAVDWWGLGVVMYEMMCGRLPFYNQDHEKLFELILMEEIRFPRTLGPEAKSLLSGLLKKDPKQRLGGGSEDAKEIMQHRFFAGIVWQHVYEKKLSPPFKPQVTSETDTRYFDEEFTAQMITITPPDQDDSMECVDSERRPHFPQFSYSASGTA
# Description: In briefly, Akt activity was assayed using human recombinant insect Sf21 cells for Akt kinase source and crosstide peptide ([…], 15 μg/mL) as a substrate. Cell lysate was incubated with kinase assay buffer (50 mM HEPES pH 7.4, 10 mM MgCl2, 0.2 mM Na3VO4, and 1 mM DTT) for 60 min at 25°C, and analyzed by ELISA quantitation of Crosstide-P.
# [4] = Body weight of BJAB tumor bearing mice; format: in vivo; settings: nude mice, 50-200 mg/kg, po, qd, 31 days
# Description: The mice were carefully maintained and all animal procedures were in accordance with the Institutional Animal Care and Use Committee procedures and guidelines. […] Tumor size was measured twice weekly and calculated from V = 0.5 lw^2, where w = width (w) and l = length (l). At the end of study, tumors were carefully removed and frozen in liquid nitrogen for subsequent western analysis.
# HDAC1, 2, 6, and 8 = settings: range over the four isoforms; cited from earlier work
# HDAC4 = settings: cited from earlier work
# [5] = test system: HDAC enzyme activity in BJAB cells; assay: Cell-based HDAC fluorescence activity assay, BJAB; settings: Homo sapiens, 24 h, read-out: IC50 (HDAC enzyme activity)
# Description: (§4) After the incubation, the lysine developer in this kit was added and the mixture was incubated for another 30 min at 37°C.
# [6] = test system: HDAC enzyme activity in Ramos cells; assay: Cell-based HDAC fluorescence activity assay, Ramos; settings: Homo sapiens, 24 h, read-out: IC50 (HDAC enzyme activity)
# Description: as §4
SMILES,IC50 [1],Survival rate compared with control group (Ramos cells [2]),TGI (BJAB tumors; 200 mg/kg),IC50 (HUVEC cells),IC50 (Ramos cells [3]),IC50 (BJAB cells),IC50 (Akt),TGI (BJAB tumors; 100 mg/kg),Body weight difference between groups [4],"IC50 (HDAC1, 2, 6, and 8)",effect upon HDAC4 (HDAC4),IC50 [5],IC50 [6]
"O=C(CCCCCCC(=O)Nc1ccccc1)NO [SAHA, reference compound]",32.9 ± 11.3 µM,no significant efficacy,17.9%,,,,,,,,,,
"O=C(C=Cc1ccc2c(c1)CCN2S(=O)(=O)c1ccccc1)NO [MPT0E028, 3-(1-Benzenesulfonyl-2,3-dihydro-1H-indol-5-yl)-N-hydroxy-acrylamide]",5.9 ± 1.6 µM,significantly prolonged,40.4%,> 30 µM,0.65 ± 0.1 µM,1.45 ± 0.5 µM,5.78 µM,20.8%,no significant difference in body weight,0.0295 to 2.53 µM,no effect,4.54 ± 1.2 µM,2.88 ± 1.9 µM
